Test results from US7235689B2, “Hydroxamic acid derivatives having anti-inflammatory action” (Italfarmaco SpA, priority 2003, dated 2007).

Legend:
TNFα production = test: Inhibition of TNFα production in mice induced by LPS (in vivo); settings: CD1 female mice, 1 mg/kg orally 60 min. prior to LPS 2 mg/kg i.p., blood TNFα 90 min. after LPS
Protocol: For the compounds of the present invention, the capacity to inhibit TNFα production induced by the administration of LPS was evaluated in mice.
A lethal quantity of LPS (E. coli 055:B5; 2 mg/kg) was administered to the animals (CD1 female mice) by an intraperitoneal route; 90 min. after administration, the animals were killed and the TNFα content present in the blood was determined by ELISA assay.
The compounds under test, suspended in Methyl Cellosolve (0.5% in water), were administered orally, 60 min. prior to the administration of LPS, at a dose of 1 mg/kg.
The results are given in the following table; the values are expressed as percentage inhibition of TNFα production in comparison with the control group.

[1] = Metabolic resistance in vitro, S9 liver fraction; type: in vitro ADME; settings: 6 μg/ml, 37° C., phosphate buffer pH 7.4, S9 fraction protein content 2 mg/ml
Protocol: The metabolic resistance of some compounds described in the preceding examples was evaluated by incubating the substances with the S9 fraction of a microsomal preparation of liver cells. Each compound (6 μg/ml) was incubated at 37° C. for 30 min. in phosphate buffer (pH 7.4) containing the S9 fraction (protein content 2 mg/ml). The reaction was stopped by cooling in an ice bath and adding an equal volume of water/acetonitrile (50:50) containing 0.2% of trifluoroacetic acid. After centrifuging, an aliquot of the supernatant fluid was analyzed by HPLC to evaluate the percentage of product that had remained intact.

[2] = test system: TNFα production in human monocytes stimulated with LPS; test: Inhibition of TNFα production in human monocytes stimulated with LPS (in vitro); type: cell-based; settings: Monocyte; human mononuclear peripheral blood cells, LPS 10 ng/ml, 24 hours, ELISA; average of at least two determinations
Protocol: The compounds were dissolved in DMSO to a final concentration of 120 mM and were stored at −80° C. The solutions for the test were prepared by diluting the mother solutions in RPMI 1640 with the addition of 1% FCS and 0.01% DMSO and were filtered with 0.2 μm filters.
Mononuclear peripheral blood cells were obtained from “buffy coats” of healthy donors by separation in a Ficoll-Hypaque gradient. The cells were spread in plates with 96 wells at a concentration of about 500,000 cells per well, suspended in RPMI 1640 containing 1% FCS and were incubated at 37° C. in the presence of various concentrations (from 10^−6 to 10^−11 M) of the compounds to be tested.
After 1 hour, LPS was added (to a final concentration of 10 ng/ml; obtained from E. coli 055:B5) and the plates were incubated at 37° C. for a further 24 hours. Upon completion, the supernatant fluids were collected and used for the determination of the TNFα content by ELISA (ELISA Duoset Kit; R&D systems, Minneapolis, Minn., USA).
The concentration of TNFα was calculated with the use of a calibration curve and the IC50 values (concentration which inhibits the production of the cytokine by 50%) were calculated from the curve obtained, giving the percentage inhibition values for each individual concentration of the compound under test.
The values obtained for the compounds described in the preceding examples are given in the following table (the values are the average of the results obtained in at least two determinations, performed with cells of different donors).

mouse HDAC-1 enzyme = mouse HDAC-1 enzyme (Mus musculus, UniProt O09106); test: Inhibition of the enzymatic activity of histone deacetylase; type: biochemical
Chain of mouse HDAC-1 enzyme (O09106 whole entry): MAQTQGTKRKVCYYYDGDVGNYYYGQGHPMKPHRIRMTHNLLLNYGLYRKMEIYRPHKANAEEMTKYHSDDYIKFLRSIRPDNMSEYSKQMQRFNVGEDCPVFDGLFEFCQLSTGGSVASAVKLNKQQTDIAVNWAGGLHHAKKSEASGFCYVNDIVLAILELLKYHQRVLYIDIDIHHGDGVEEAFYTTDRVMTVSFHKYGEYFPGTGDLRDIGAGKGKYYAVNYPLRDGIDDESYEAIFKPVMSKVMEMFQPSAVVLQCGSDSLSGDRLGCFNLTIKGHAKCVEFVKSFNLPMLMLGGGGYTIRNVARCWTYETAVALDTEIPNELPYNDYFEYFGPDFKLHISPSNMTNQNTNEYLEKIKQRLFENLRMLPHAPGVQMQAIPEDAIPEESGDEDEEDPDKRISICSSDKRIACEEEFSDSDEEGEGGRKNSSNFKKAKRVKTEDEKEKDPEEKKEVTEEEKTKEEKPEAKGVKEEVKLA
Protocol: The capacity of the compounds of the invention to inhibit the activity of the histone deacetylase enzyme was evaluated with the use of the mouse HADC-1 enzyme. The assay was performed by the method already described in the literature [Biochem. Biophys. Acta, 1996, vol. 1296, p. 181]. The IC50 values (concentration which inhibits the activity of the enzyme by 50%) were derived from the percentages of inhibition obtained with various concentrations of the compound under test; these values are given in the following table.

[3] = test system: human HEP-G2 hepatoma cell line; test: Cytotoxicity in vitro on HEP-G2 cells (formazane colorimetric assay); type: cell-based; settings: 48 h
Protocol: The cytotoxicity of some compounds described in the preceding examples was evaluated in vitro on the human HEP-G2 hepatoma cell line by a commercial colorimetric method (Cell Titer 96® Aqueous One Solution Cell Proliferation Assay—Promega); the method determines the number of living cells on the basis of their ability to metabolize a tetrazolium salt producing formazane. The quantity of formazane produced is proportional to the number of living cells.
The HPE-G2 cells were distributed in micro-plates with 96 wells at a density of 4×10^4 cells/well (100 μl) in M199 medium containing 10% of bovine foetal serum and supplements (complete medium).
After incubation for 24 h (37° C., 5% CO2, 90% humidity) the cells were washed once and the medium was replaced with 200 μl of complete medium containing the substances to be tested at final concentrations of 10^−5, 10^−6 and 10^−7 M. The test was performed in triplicate.
The plates were incubated for a further 48 h, after which 100 μl of medium was removed and 20 μl per well of dye solution was added in accordance with the supplier's instructions. The optical density (λ=490 nm) was read after incubation for 1 h at 37° C. with the use of a plate reader (Victor 2—Wallace Perkin Elmer).
The results are expressed as the percentage inhibition of the formation of formazane in comparison with the control.

SMILES | Residual product after 30 min. [1] [%] | IC50 [2] [nM] | IC50 (mouse HDAC-1 enzyme) [nM] | Inhibition of TNFα production in comparison with the control group (TNFα production) [%] | Cytotoxicity at 10^−6 M (percentage inhibition of the formation of formazane) [3] [%]
COc1cccc(CCC(=O)Nc2ccc(C(=O)NO)cc2)c1 [Ex. 03, N-hydroxy-4-[3-(3-methoxy-phenyl)-propionylamino]-benzamide] | 60.7 | 26 | 219 | 56 | 7.3
COc1ccc(CC(=O)Nc2ccc(C(=O)NO)cc2)cc1 [Ex. 04, N-hydroxy-4-[2-(4-methoxy-phenyl)-acetylamino]-benzamide] | 90.2 | 51.5 | 113 | 42 | 0
CCOc1ccc(CC(=O)Nc2ccc(C(=O)NO)cc2)cc1 [Ex. 05, N-hydroxy-4-[2-(4-ethoxy-phenyl)-acetylamino]-benzamide] | 89.0 | 32 | 90 | – | 0
O=C(CCc1cc(C(F)(F)F)cc(C(F)(F)F)c1)Nc1ccc(C(=O)NO)cc1 [Ex. 06, N-hydroxy-4-[3-(3,5-bis-trifluoromethyl-phenyl)-propionyl-amino]-benzamide] | 68.4 | 17 | 19 | – | 13
COc1cc(CC(=O)Nc2ccc(C(=O)NO)cc2)cc(OC)c1OC [Ex. 07, N-hydroxy-4-[2-(3,4,5-trimethoxy-phenyl)-acetylamino]-benzamide] | – | 45 | 14 | – | –
CSc1ccc(CC(=O)Nc2ccc(C(=O)NO)cc2)cc1 [Ex. 08, N-hydroxy-4-[2-(4-methylsulphanil-phenyl)-acetylamino]-benzamide] | – | 320 | 58 | – | –
O=C(Cc1ccc(-c2ccccc2)cc1)Nc1ccc(C(=O)NO)cc1 [Ex. 12, N-hydroxy-4-[2-(diphenyl-4-yl)-acteylamino]-benzamide] | – | 227 | 7 | – | –
O=C(CCc1ccccc1OC(=O)c1ccccc1)Nc1ccc(C(=O)NO)cc1 [Ex. 14, 2-[2-(4-hydroxycarbamoyl-phenylcarbamoyl)-ethyl]-phenyl ester of benzoic acid] | – | 157 | 106 | – | –
O=C(Cc1ccc([N+](=O)[O-])cc1)Nc1ccc(C(=O)NO)cc1 [Ex. 15, N-hydroxy-4-[2-(4-nitro-phenyl)-acteylamino]-benzamide] | – | 27 | 146 | – | 0
O=C(Cc1ccccc1Oc1ccccc1)Nc1ccc(C(=O)NO)cc1 [Ex. 16, N-hydroxy-4-[2-(2-phenoxy-phenyl)-acetylamino]-benzamide] | – | 259 | 118 | – | –
O=C(Cc1ccccc1OCc1ccccc1)Nc1ccc(C(=O)NO)cc1 [Ex. 18, N-hydroxy-4-[2-(2-benzyloxy-phenyl)-acetylamino]-benzamide] | – | 391 | 112 | – | –

Further lines, with some results ahead:

Residual product after 30 min. [1] [%] | IC50 [2] [nM] | IC50 (mouse HDAC-1 enzyme) [nM] | SMILES | Inhibition of TNFα production in comparison with the control group (TNFα production) [%] | Cytotoxicity at 10^−6 M (percentage inhibition of the formation of formazane) [3] [%]
78.9 | 14.5 | 142 | O=C(Cc1ccc(C(F)(F)F)cc1)Nc1ccc(C(=O)NO)cc1 [Ex. 01, N-hydroxy-4-[2-(4-trifluoromethyl-phenyl)-acetylamino]-benzamide] | 67 | 3.8
– | 76 | – | CC(CC(=O)Nc1ccc(C(=O)NO)cc1)c1ccccc1 (stereo not drawn) [Ex. 02, N-hydroxy-4-(3-phenyl-butyrylamino)-benzamide] | – | –
– | 70 | 67 | O=C(Cc1cccc(C(F)(F)F)c1)Nc1ccc(C(=O)NO)cc1 [Ex. 09, N-hydroxy-4-[2-(3-trifluoromethyl-phenyl)-acetylamino]-benzamide] | – | –
– | 134 | 130 | O=C(Cc1cccc([N+](=O)[O-])c1)Nc1ccc(C(=O)NO)cc1 [Ex. 10, N-hydroxy-4-[2-(3-nitro-phenyl)-acetylamino]-benzamide] | – | –
– | 108 | 102 | O=C(Cc1cccc(Oc2ccccc2)c1)Nc1ccc(C(=O)NO)cc1 [Ex. 11, N-hydroxy-4-[2-(3-phenoxy-phenyl)-acetylamino]-benzamide] | – | –
– | 187 | 202 | COc1cccc(CC(=O)Nc2ccc(C(=O)NO)cc2)c1OC [Ex. 13, N-hydroxy-4-[2-(2,3-dimethoxy-phenyl)-acetylamino]-benzamide] | – | –
– | 280 | 255 | COc1cc(CC(=O)Nc2ccc(C(=O)NO)cc2)c([N+](=O)[O-])cc1OC [Ex. 17, N-hydroxy-4-[2-(4,5-dimethoxy-2-nitro-phenyl)-acetylamino]-benzamide] | – | –
– | 1000 | 214 | O=C(Cc1ccccc1[N+](=O)[O-])Nc1ccc(C(=O)NO)cc1 [Ex. 19, N-hydroxy-4-[2-(2-nitro-phenyl)-acetylamino]-benzamide] | – | –
